According to ChEMBL document CHEMBL3627715, “Caffeoyl glucosides from Nandina domestica inhibit LPS-induced endothelial inflammatory responses” (Bioorg Med Chem Lett, 2015):

Assays:
[1] = test system: HUVEC; experiment: Inhibition of LPS-induced neutrophil adhesion in HUVEC cells assessed as neutrophil adhesion to cell monolayer at 20 uM for 6 hrs pretreated with LPS for 4 hrs by fluorescence microplate reader assay (reference value: 86%); type: functional, Homo sapiens; design: scale not given: the % may be the effect or the level left
[2] = test system: HUVEC; experiment: Inhibition of LPS-induced neutrophil migration in HUVEC cells assessed as migration index at 20 uM for 6 hrs pretreated with LPS for 4 hrs (reference value: 155); type: functional, Homo sapiens
[3] = Acid hydrolysis of compound assessed as retention time at 2 mg after 6 hrs by RP-HPLC method; type: physicochemical
[4] = test system: HUVEC; experiment: Inhibition of LPS-induced hyperpermeability in HUVEC cells for 6 hrs pretreated with LPS for 4 hrs by evans blue dye flux based immunofluorescence analysis; type: functional, cell-based; conditions: Homo sapiens
[5] = test system: HUVEC; experiment: Inhibition of LPS-induced hyperpermeability in HUVEC cells assessed as permeability at 20 uM for 6 hrs pretreated with LPS for 4 hrs by evans blue dye flux based immunofluorescence analysis (reference value: 100%); type: functional, Homo sapiens; design: scale not given: the % may be the effect or the level left
[6] = test system: HUVEC; experiment: Cytotoxicity against HUVEC cells assessed as permeability at 2.5 to 20 uM after 6 hrs by evans blue dye flux based immunofluorescence analysis; type: cell-based; conditions: human
[7] = test system: HUVEC; experiment: Inhibition of LPS-induced neutrophil adhesion in HUVEC cells for 6 hrs pretreated with LPS for 4 hrs by fluorescence microplate reader assay; type: functional, cell-based; conditions: Homo sapiens
[8] = test system: HUVEC; experiment: Cytotoxicity against HUVEC cells assessed as neutrophil adhesion at 2.5 to 20 uM after 6 hrs by fluorescence microplate reader assay; type: cell-based; conditions: human
[9] = test system: HUVEC; experiment: Inhibition of LPS-induced neutrophil migration in HUVEC cells for 6 hrs pretreated with LPS for 4 hrs; type: functional, cell-based; conditions: Homo sapiens
[10] = test system: HUVEC; experiment: Cytotoxicity against HUVEC cells assessed as neutrophil migration at 2.5 to 20 uM after 6 hrs; type: cell-based; conditions: human

| Retention_time [3] | Compound | Activity [1] | Activity_index [2] | inhibition [4] | Activity [5] | Activity [6] | inhibition [7] | Activity [8] | inhibition [9] | Activity [10] |
| --- | --- | --- | --- | --- | --- | --- | --- | --- | --- | --- |
|  | O=C(/C=C/c1ccc(O)c(O)c1)OCc1ccc(O[C@@H]2O[C@H](CO)[C@@H](O)[C@H](O)[C@H]2O)cc1 | 73% | 142 |  |  |  |  |  |  |  |
| 28.1 min | O=Cc1ccc(O[C@@H]2O[C@H](COC(=O)/C=C/c3ccc(O)c(O)c3)[C@@H](O)[C@H](O)[C@H]2O)cc1 | 30% | 75 | Dose-dependent effect | 73% | Non-toxic | Dose-dependent effect | Non-toxic | Dose-dependent effect | Non-toxic |
|  | O=c1cc(-c2ccc(O)c(O)c2)oc2c([C@@H]3O[C@H](CO)[C@@H](O)[C@H](O)[C@H]3O)c(O)cc(O)c12 [ORIENTIN] | 41% | 73 |  | 71% |  |  |  | Dose-dependent effect |  |
|  | O=Cc1ccc(O[C@@H]2O[C@H](CO)[C@@H](OC(=O)/C=C/c3ccc(O)c(O)c3)[C@H](O)[C@H]2O)cc1 | 33% | 74 | Dose-dependent effect | 58% | Non-toxic | Dose-dependent effect | Non-toxic | Dose-dependent effect | Non-toxic |
